Values quoted from earlier work as cited in patent publication US10045978B2 (AB SCIENCE, priority 2010, dated 2018).

Test system: Ba/F3 cells expressing the D816V c-Kit mutation
Conditions: proliferation; cited from earlier work

## Cc1ccc(NC(=O)c2ccc(CN3CCN(C)CC3)cc2)cc1Nc1nc(-c2cccnc2)cs1 [masitinib, 4-(4-methylpiperazin-1-ylmethyl)-N-[4-methyl-3-(4-pyridin-3ylthiazol-2-ylamino)phenyl]benzamide]
  IC50: 5 ± 2 µM
